Experimental data reported in PubChem BioAssay (NCI).
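Each compound was tested at five concentrations against cells in 96-well plates for 48 hours. Abbreviation: GI50, concentration required for 50% inhibition of growth. TGI is the concentration that stops growth completely.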

Columns and labels:
Experiment in all cases: NCI-60 cell line screen, 48 h
[1] = test system: A498 renal
[2] = test system: A549 NSCLC
[3] = test system: ACHN renal
[4] = test system: BT-549 breast
[5] = test system: CAKI-1 renal
[6] = test system: COLO 205 colon
[7] = test system: DU-145 prostate
[8] = test system: EKVX NSCLC
[9] = test system: HCT-116 colon
[10] = test system: HCT-15 colon
[11] = test system: HL-60(TB) leukemia
[12] = test system: HOP-62 NSCLC
[13] = test system: HOP-92 NSCLC
[14] = test system: HS 578T breast
[15] = test system: HT29 colon
[16] = test system: IGROV1 ovarian
[17] = test system: K-562 leukemia
[18] = test system: KM12 colon
[19] = test system: LOX IMVI melanoma
[20] = test system: MALME-3M melanoma
[21] = test system: MCF7 breast
[22] = test system: MDA-MB-231 breast
[23] = test system: MDA-MB-435
[24] = test system: MOLT-4 leukemia
[25] = test system: NCI-H226 lung
[26] = test system: NCI-H23 lung
[27] = test system: NCI-H460 lung
[28] = test system: NCI-H522 lung
[29] = test system: NCI/ADR-RES ovarian
[30] = test system: OVCAR-3 ovarian
[31] = test system: OVCAR-4 ovarian
[32] = test system: OVCAR-5 ovarian
[33] = test system: OVCAR-8 ovarian
[34] = test system: PC-3 prostate
[35] = test system: RPMI-8226 leukemia
[36] = test system: RXF 393 renal
[37] = test system: SF-268 CNS
[38] = test system: SF-295 CNS
[39] = test system: SF-539 CNS
[40] = test system: SK-MEL-2 melanoma
[41] = test system: SK-MEL-28 melanoma
[42] = test system: SK-MEL-5 melanoma
[43] = test system: SK-OV-3 ovarian
[44] = test system: SN12C renal
[45] = test system: SNB-19 CNS
[46] = test system: SNB-75 CNS
[47] = test system: SW-620 colon
[48] = test system: T-47D breast
[49] = test system: TK-10 renal
[50] = test system: U251 CNS
[51] = test system: UACC-257 melanoma
[52] = test system: UACC-62 melanoma
[53] = test system: UO-31 renal

## Cc1nnc2n1N=C(c1ccc(Cl)cc1Cl)/C(=C/c1ccc(-c3ccc([N+](=O)[O-])cc3Cl)o1)S2
[1]
  GI50: 31.7 µM
  TGI: 95.8 µM
[2]
  GI50: 31.7 µM
  TGI: > 100 µM
[3]
  GI50: 18.5 µM
  TGI: 34.6 µM
[4]
  GI50: 22.1 µM
  TGI: 43.3 µM
[5]
  GI50: 25.2 µM
  TGI: 84.8 µM
[6]
  GI50: 54.8 µM
  TGI: > 100 µM
[7]
  GI50: 18.7 µM
  TGI: 38.9 µM
[8]
  GI50: 61.2 µM
  TGI: > 100 µM
[9]
  GI50: 12.3 µM
  TGI: 24.8 µM
[10]
  GI50: 16.9 µM
  TGI: 42.9 µM
[11]
  GI50: 25.1 µM
  TGI: 62.9 µM
[12]
  GI50: > 100 µM
  TGI: > 100 µM
[13]
  GI50: 21.5 µM
  TGI: 72.5 µM
[14]
  GI50: 20.2 µM
  TGI: 50.7 µM
[15]
  GI50: 49.9 µM
  TGI: > 100 µM
[16]
  GI50: 27.5 µM
  TGI: > 100 µM
[17]
  GI50: 13.6 µM
  TGI: 26.9 µM
[18]
  GI50: 32.4 µM
  TGI: > 100 µM
[19]
  GI50: 12.3 µM
  TGI: 27.4 µM
[20]
  GI50: 21.2 µM
  TGI: 56.1 µM
[21]
  GI50: 2.06 µM
  TGI: 14.3 µM
[22]
  GI50: 12.2 µM
  TGI: 30.6 µM
[23]
  GI50: 13.5 µM
  TGI: 29 µM
[24]
  GI50: 13.1 µM
  TGI: 33.6 µM
[25]
  GI50: 20.7 µM
  TGI: 41.1 µM
[26]
  GI50: 12.5 µM
  TGI: 28.1 µM
[27]
  GI50: 26 µM
  TGI: > 100 µM
[28]
  GI50: 20.9 µM
  TGI: 44.9 µM
[29]
  GI50: 18.4 µM
  TGI: 37.4 µM
[30]
  GI50: 14.4 µM
  TGI: 34 µM
[31]
  GI50: 33.4 µM
  TGI: > 100 µM
[32]
  GI50: 16.5 µM
  TGI: 30.9 µM
[33]
  GI50: 18.1 µM
  TGI: 41.5 µM
[34]
  GI50: 31.3 µM
  TGI: > 100 µM
[35]
  GI50: 10.2 µM
  TGI: 24.9 µM
[36]
  GI50: 11.5 µM
  TGI: 25.1 µM
[37]
  GI50: 24.3 µM
  TGI: 66.7 µM
[38]
  GI50: 43.5 µM
  TGI: > 100 µM
[39]
  GI50: 18.5 µM
  TGI: 36.6 µM
[40]
  GI50: 32.8 µM
  TGI: > 100 µM
[41]
  GI50: 57.3 µM
  TGI: > 100 µM
[42]
  GI50: 16.5 µM
  TGI: 32.6 µM
[43]
  GI50: > 100 µM
  TGI: > 100 µM
[44]
  GI50: 17.8 µM
  TGI: 40.9 µM
[45]
  GI50: > 100 µM
  TGI: > 100 µM
[46]
  GI50: 73.2 µM
  TGI: > 100 µM
[47]
  GI50: 13.3 µM
  TGI: 33 µM
[48]
  GI50: 83 µM
  TGI: > 100 µM
[49]
  GI50: 18.4 µM
  TGI: 34.8 µM
[50]
  GI50: 14.9 µM
  TGI: 30.2 µM
[51]
  GI50: 18.1 µM
  TGI: 41.2 µM
[52]
  GI50: 18.4 µM
  TGI: 39.9 µM
[53]
  GI50: 14.8 µM
  TGI: 31 µM
